Legend:
[1] = cited from earlier work
[2] = cited from earlier work; remark: listed apart in the source
[3] = 20 grams a day for 5 days; five of the eight subjects; cited from earlier work
[4] = four 5 gram per day; 30 second bouts of maximal isokinetic cycling; cited from earlier work
[5] = in vivo; cited from earlier work
[6] = TriCreatine Orotate method of use, 4 weeks post-workout oral supplementation; assay type: in vivo, human; conditions: weight trained person, 5 grams orally post workout, end of 4 week period
Source text: In this example a experienced weight trained person orally consumes 5 grams of tricreatine orotate post workout for 4 weeks with beverage. Glucose or any insulin potentiating compound may added for even greater results. In this instance the tricreatine orotate is incorporated into free powder mixture of flavoring agents and D-glucose, which is then combined with water. Once in the plasma tricreatine orotate then exerts a synergistic lean tissue promoting effect due to the anabolic actions of creatine and orotic acid. The creatine enhances phophocreatine resynthesis and attracts water to intercellular component of the muscle cell, which in turn activates protein synthesis while the orotic acid promotes uridine phosphates and glycogen synthesis. The previously mentioned physiological functions lead to increases in lean body mass, strength, endurance, recovery and loss of fat tissue. At the end of the 4 week period the individual reported a 6 pound weight gain, a 20 pound increase in […] 1 repetition maximum bench press, and a 5 repetition increase in […] initial 70 percent maximum bench press. These increases contribute to the regulation of athletic function and thus lead to enhanced physical performance.

Compound: CN(CC(=O)O)C(=N)N.O [creatine monohydrate]
- rise in plasma creatine concentration ([1]; 1 gram dose): only a modest rise
- time of mean peak plasma creatine ([1]; 5 gram dose): 1 h
- total creatine content of the quadriceps ([2]; 5 grams four to six times a day for 2 or more days): significant increase
- creatine uptake ([2]; first two days of supplementation, six 5 gram doses): 32%
- creatine taken up measured as phosphocreatine (PCr) ([2]; in vivo): ≥ 20%

Compound: CN(CC(=O)O)C(=N)N [creatine]
- muscle total creatine concentration and phosphocreatine resynthesis [3]: substantially increased
- peak power output and mean power output [4]: significantly increased

Compound: O=C(O)c1cc(=O)[nH]c(=O)[nH]1 [orotic acid, 1,2,3,6-Tetrahydro-2,6-dioxo-4-pyrimidecarboxylic acid]
- growth and functional maturation of animals [5]: significant acceleration

Compound: Tricreatine orotate
- increase in 1 repetition maximum bench press [6]: 20 pound
- increase in initial 70 percent maximum bench press [6]: 5 repetition
- weight gain [6]: 6 pound

Reference: patent publication USRE43029E1, “Process for preparing a creatine heterocyclic acid salt and method of use” (Bio-Engineered Supplements & Nutrition, Inc., priority 2003, dated 2011)
